Reference: patent US20020013478A1, “Calanolide analogues and methods of their use” (Sarawak Medichem Pharmaceuticals,Inc., priority 1994, published 2002)
Read-outs that look alike come from different tables or passages of the source.

Assays:
[1] = system: CEM-SS cells; test: CEM-SS MTT assay, cytotoxicity (Table I); type: cell-based, human
[2] = system: HIV-1; details: for EC50 / Maximum Protection (%): CEM-SS MTT assay; for protecting cells against HIV infection: text summary of Table I
[3] = system: HBV; test: HBV replication in cultures of 2.2.15 cells, extracellular HBV virion DNA (primary assay); details: read-out: HBV EC50; Table II
Procedure: Both intracellular and extracellular HBV DNA are analyzed in order to (i) allow for verification of compound efficacy and (ii) provide possible data on the target site in the HBV replication pathway for the compound from examination of the pattern of viral replicative forms. The culture medium is changed daily during the treatment period to (i) prevent the buildup of potentially toxic metabolites derived from test compounds and (ii) provide an analysis of HBV virion production during discrete 24-hour intervals which enables a quantitative comparison of any effect on virion production.
The analysis of HBV DNA is performed using blot hybridization techniques (Southern and slot blot) and [^32P]-labeled HBV-specific probes. HBV DNA levels are measured by comparison to known amounts of HBV DNA standards applied to every nitrocellulose membrane (gel or slot blot). An AMBIS beta scanner, which measures the radioactive decay of the hybridized probes directly from the nitrocellulose membranes, is used for the quantitative analysis. Standard curves, generated by multiple analyses, are used to correlate CPM measurements made by the beta scanner with relative levels of target HBV DNA. The levels of HBV virion DNA released into the culture medium are analyzed by a slot blot hybridization procedure.

[4] = system: 2.2.15 cells; test: Toxicity in 2.2.15 cells, neutral red dye uptake; type: cell-based, human; details: Table II; read-out: HBV IC50
Procedure: Cells of 2.2.15 were grown to confluence in 96-well flat-bottomed tissue culture plates and treated with compounds (in 0.2 mL culture medium/well) as described above. Four concentrations of each compound were assayed, each in triplicate cultures, in 3- to 10-fold steps. Untreated control cultures were maintained on each 96-well plate. On each 96-well plate, wells containing no cells were used to correct for light scattering.

[5] = system: human foreskin fibroblast cells; test: Toxicity run with the HCMV assay, human foreskin fibroblast cells; type: cell-based; details: Table II
Procedure: [table] […] The media from the wells is then aspirated and 2 mL of each drug concentration is then added to each well. The cells are then incubated in a CO2 incubator at 37° C. for 72 h. At the end of this time, the media-drug solution is removed and the cells washed. […] The cell-media mixture is then pipetted up and down vigorously to break up the cell suspension, and 0.2 mL of the mixture is added to 9.8 mL of Isoton III and counted using a Coulter Counter. Each sample is counted three times with three replicate wells per sample. The procedure for plating cells and adding drug is the same as for the MTT Assay. After drug addition, the plates are incubated for seven days in a CO2 incubator at 37° C. […] This is incubated in the CO2 incubator for one hour. The dye is aspirated and the cells are washed using a Nunc Plate Washer. […] The plates are rotated for 15 minutes and the optical densities are read at 550 nm on a plate reader.

[6] = system: HCMV; test: HCMV semi-automated CPE-inhibition assay in human foreskin fibroblast cells; type: cell-based, human cytomegalovirus; details: Table II
[7] = system: HCMV isolates Towne, AD169, E. Mann, Coffman, C9208; test: Anti-CMV plaque reduction assay against various laboratory and clinical isolates (Example 40); type: cell-based, human cytomegalovirus
Procedure: On the date of assay, the drug is made up at twice the desired concentration in 2x MEM and then serially diluted 1:5 in 2x MEM using six concentrations of drug. The initial starting concentration is usually 200 gg/mL down to 0.06 μg/mL. […] The media is then aspirated from the wells and 0.2 mL of virus is added to each well in duplicate with 0.2 mL of media being added to drug toxicity wells. The plates are then incubated for one hour with shaking every fifteen minutes. […] This will give final drug concentrations beginning with 100 μg/mL and ending with 0.03 μg/mL and a final agarose overlay concentration of 0.5%. The drug agarose mixture is applied to each well in 2 mL volume and the plates then incubated for three days, after which the cells were stained with a 1.5% solution of neutral red. At the end of 4-6hr incubation period, the stain is aspirated, and plaques counted using a stereomicroscope at lOx magnification. The procedure again is nearly the same as for HSV with a few minor changes. […] The assay is incubated for 14 days with the additional 1 mL overlays being applied on days four and eight. The procedure for the liquid overlay plaque assay is similar to that using the agarose overlay. The procedure for adding the virus is the same as for the regular plaque assay. The drugs are made up in a concentration to be used in MEM with 2% FBS. The drugs are not made up at 2x concentration as in the previous assays but are made up at the desired concentration. For HSV-1 and HSV-2 assays, an antibody preparation obtained from Baxter Health Care Corporation is diluted 1:500 and added to the media that the drug is diluted in. For CMV and VZV, no antibody in the overlay is utilized. For the CMV assay, additional medium without new drug is added on day five and allowed to incubate for a total of 10 days. For VZV, additional medium is added on day five and incubated for a total of 10 days. At the end of the incubation period for all of the assays, 2 mL of 1:10 dilution of stock neutral is added to each well incubated for six hours. The liquid is then aspirated off and plaques enumerated using a stereomicroscope. Five calanolide analogues, prepared as described above, were further evaluated for their anti-HCMV activity in plaque reduction assay against various laboratory and clinical isolates (Towne, AD 169, E. Mann, Coffinan, and […]).

Compound	IC50 [1]	EC50 [2]	Maximum Protection (%) [2]	protecting cells against HIV infection [2]	further results
CCCc1cc(=O)oc2c3c(c4c(c12)OC(C)(C)C=C4)OC(C)(C)C(C)C3O (racemic) [(±)-16d, (±)-11,12-trans-10,11-dihydro-12-hydroxy-6,6,10,10,11-pentamethyl-4-propyl-2H,6H,12H-benzo [1,2-b:3,4-b′:5,6-b″]tripyran-2-one]	21 µM	5.66 µM	88%	highly efficacious	
CCCc1cc(=O)oc2c(C(=O)C(C)(C)C(C)O)c(O)c3c(c12)OC(C)(C)C=C3 (racemic) [(±)-14a, (±)-6,6-Dimethyl-10-(2,2-dimethyl-3-hydroxybutyro)-9-hydroxy-4-propyl-2H,6H-benzo[1,2-b:3,4-b′]dipyran-2-one]	37 µM				
CCCc1cc(=O)oc2c3c(c4c(c12)OC(C)(C)C=C4)OC(CC)C(C)C3O (racemic) [(±)-16e, (±)-10,11-trans-11,12-cis-10,11-Dihydro-10-ethyl-12-hydroxy-4-propyl-6,6,11-trimethyl-2H,6H,12H-benzo [1,2-b:3,4-b′:5,6-b″]tripyran-2-one]	14 µM	1.67 µM	88%	highly efficacious	
CCCc1cc(=O)oc2c3c(c4c(c12)OC(C)(C)C=C4)OC(CC)C(C)C3O (racemic) [(±)-16f, (±)-10,11-qrans-11,12-trans-10,11-dihydro-10-ethyl-12-hydroxy4-propyl-6,6,11-trimethyl-2H,6H,12H-benzo [1,2-b:3,4-b′:5,6-b″]tripyran-2-one]	17.7 µM	1.97 µM	86%	highly efficacious	
CCCc1cc(=O)oc2c3c(c4c(c12)OC(C)(C)C=C4)OC(CC)C(C)C3O (racemic) [(±)-16g, (±)-10,11-cis-11,12-trans-10,11-Dihydro-10-ethyl-12-hydroxy-4-propyl-6,6,11-trimethyl-2H,6H,12H-benzo [1,2-b:3,4-b′:5,6-b″]tripyran-2-one]	11.6 µM				
CCCc1cc(=O)oc2c3c(c4c(c12)OC(C)(C)C=C4)OC(C)C(C)C3=O (single isomer, unassigned; (-)) [(−)-7a]					EC50 [3]: > 10 µM; IC50 [4]: 86 µM; HCMV IC50 [5]: 11.9 mg/L; HCMV EC50 [6]: >4.0 mg/L
CCCc1cc(=O)oc2c3c(c4c(c12)OC(C)(C)C=C4)OC(C)(C)C(C)C3O (racemic) [(±)-16c, (±)-11,12-cis-10,11-Dihydro-12-hydroxy-6,6,10,10,11-pentamethyl-4-propyl-2H, 6H, 12H-benzo [1,2-b:3,4-b′:5,6-b″]tripyran-2-one]	21.3 µM				
CCCc1cc(=O)oc2c(C(=O)[C@H](C)[C@@H](C)OC(C)=O)c(O)c3c(c12)OC(C)(C)C=C3 [(+)-10, 6,6Dimethyl-9-hydroxy-10-[2(R)-methyl-3(R)-acetoxybutyro]-4-propyl-2H,6H-benzo-[1,2-b:3,4-b′]dipyran-2-one]	9.27 µM	0.89 µM	88%	highly efficacious	
CCCc1cc(=O)oc2c3c(c4c(c12)OC(C)(C)C=C4)OC(C)C(C)(C)C3O (racemic) [(±)-16a, (±)-10,12-cis-10,11-Dihydro-12-hydroxy-6,6,10,11,11-pentamethyl-4propyl-2H, 6H, 12H-benzo [1,2-b:3,4-b′:5,6-b″]tripyran-2-one]	20.3 µM				
CCCc1cc(=O)oc2c3c(c4c(c12)OC(C)(C)C=C4)OC(C)C(C)(C)C3O (racemic) [(±)-16b, (±)-10,12-trans-10,11-dihydro-12-hydroxy-6,6,10,11,11-pentamethyl-4-propyl-2H,6H,12H-benzo [1,2-b:3,4-b′:5,6-b″]tripyran-2-one]	16.9 µM	2.36 µM	78%	highly efficacious	
CCCc1cc(=O)oc2c(C(=O)C(C)C(C)(C)O)c(O)c3c(c12)OC(C)(C)C=C3 (racemic) [(±)-14b, (±)-6.6-Dimethyl-10-(2,3-dimethyl-3-hydroxybutyro)-9-hydroxy4-propyl-2H,6H-benzo[1,2-b:3,4-b′]dipyran-2-one]	27.1 µM				
CCCc1cc(=O)oc2c3c(c4c(c12)OC(C)(C)C=C4)O[C@@H](C)C(C)=C3 [Compound 22, 10(S)4-propyl-6,6,10,11-tetramethyl-2H,6H,10H-benzo [1,2-b:3,4-b′:5,6-b″]tripyran-2-one]					IC50 ([1]; Homo sapiens): 24.7 µM
CCCc1cc(=O)oc2c3c(c4c(c12)OC(C)(C)C=C4)OC(C)C(C)C3=NOC (racemic) [(±)-19b, (±)-10,11-trans-10,11 -Dihydro4-propyl-6,6,10,11-tetramethyl-2H, 6H, 12H-benzo [1,2-b:3,4-b′:5,6-b ″]tripyran-2,12-dione-12-methoxime]	> 100 µM	> 100 µM			
CCCc1cc(=O)oc2c3c(c4c(c12)OC(C)(C)C=C4)O[C@H](C)[C@@H](C)C3=NO (racemic) [(±)-19a, (±)10,11-trans-10,11-Dihydro4-propyl-6,6,10,11-tetramethyl-2H, 6H, 12H-benzo [1,2-b:3,4-b′:5,6-b″]tripyran-2,12-dione-12-oxime]	15.8 µM				
CCCc1cc(=O)oc2c3c(c4c(c12)OC(C)(C)C=C4)OC(C)C(C)C3=O (racemic) [(±)-7, 10,11-trans-dihydro-4-propyl-6,6,10,11-tetramethyl-2H,6H,12H-benzo[1,2-b:3,4-b′:5,6-b″]-tripyran-2,12-dione]	19.1 µM	1.18 µM	90%	highly efficacious	EC50 ([7]; isolate AD169): 3.16 µM; EC50 ([7]; isolate C9208): 7.16 µM; EC50 ([7]; isolate Coffman): 3.34 µM; EC50 ([7]; isolate E. Mann): 3.16 µM; EC50 ([7]; isolate Towne): 3.34 µM
CCCc1cc(=O)oc2c3c(c4c(c12)OC(C)(C)C=C4)OC(CC)C(C)C3O (racemic) [(±)-16h, (±)-10,11,12-cis-10,11-dihydro10-ethyl-12-hydroxy4-propyl-6,6,11-trimethyl-2H,6H,12H-benzo [1,2-b:3,4-b′:5,6-b″]tripyran-2-one]	20.9 µM				
